In patent US10577332B2, “Tetrazole derivatives” (Hoffmann-La Roche Inc., priority 2015, dated 2020):

What was measured:
human EAAT3 = biological target: T1, human EAAT3 (Homo sapiens, UniProt P43005); experiment: FLIPR Membrane Potential (FMP) assay; format: cell-based; conditions: HEK-293 cells stably expressing human EAAT3; antagonist applied 15 min before L-glutamate at EC80; Kb by Cheng-Prusoff from IC50
T1 construct: expressed in transfected cells
T1 sequence (P43005 1-524): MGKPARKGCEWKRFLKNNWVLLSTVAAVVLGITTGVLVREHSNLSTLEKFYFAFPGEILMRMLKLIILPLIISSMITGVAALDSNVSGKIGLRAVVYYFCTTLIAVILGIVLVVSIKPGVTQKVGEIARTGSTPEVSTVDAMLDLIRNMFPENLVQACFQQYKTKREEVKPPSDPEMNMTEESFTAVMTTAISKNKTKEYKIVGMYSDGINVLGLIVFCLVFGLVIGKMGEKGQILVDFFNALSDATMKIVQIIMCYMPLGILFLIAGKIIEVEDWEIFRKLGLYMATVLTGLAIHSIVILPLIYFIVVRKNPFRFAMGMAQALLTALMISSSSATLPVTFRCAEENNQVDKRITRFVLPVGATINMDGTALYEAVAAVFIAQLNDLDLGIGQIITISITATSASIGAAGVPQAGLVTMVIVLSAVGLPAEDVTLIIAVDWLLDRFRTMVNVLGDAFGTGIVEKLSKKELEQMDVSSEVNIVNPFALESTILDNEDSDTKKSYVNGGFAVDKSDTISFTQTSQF
Summary of the method: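 HEK-293 cells stably expressing human EAAT3, loaded with membrane-potential dye 1 h at 37 °C in Krebs buffer pH 7.4. Antagonists added 15 min before L-glutamate at EC80; peak fluorescence minus basal read on FLIPR at room temperature. Kb derived from IC50 via Cheng-Prusoff.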

Kb (human EAAT3) | melting point | Structure (SMILES)
520 nM | 92 °C | Cc1ccc(-c2cc(C(=O)NC(C)(C)C3CC3)cc(-n3nnnc3C(C)(C)C)c2)cc1F [Example 115, 3-(5-tert-Butyltetrazol-1-yl)-N-(2-cyclopropylpropan-2-yl)-5-(3-fluoro-4-methylphenyl)-benzamide]
550 nM | 108 °C | CC(C)(C)c1nnnn1-c1cc(C(=O)NC(C)(C)C(F)(F)F)cc(-c2ccc(C(F)(F)F)cc2)c1 [Example 116, 3-(5-tert-Butyltetrazol-1-yl)-5-[4-(trifluoromethyl)-phenyl]-N-(1,1,1-trifluoro-2-methylpropan-2-yl)-benzamide]
280 nM | 223.5 °C | Cc1ccc(-c2cc(C(=O)NC(C)(C)C(F)(F)F)cc(-n3nnnc3C(C)(C)C)c2)cc1 [Example 117, 3-(5-tert-Butyltetrazol-1-yl)-5-(4-methylphenyl)-N-(1,1,1-trifluoro-2-methylpropan-2-yl)-benzamide]
540 nM | 203 °C | Cc1cc(-c2cc(C(=O)NC(C)(C)C(F)(F)F)cc(-n3nnnc3C(C)(C)C)c2)ccc1F [Example 118, 3-(5-tert-Butyltetrazol-1-yl)-5-(4-fluoro-3-methylphenyl)-N-(1,1,1-trifluoro-2-methylpropan-2-yl)-benzamide]
350 nM | 222 °C | CC(C)(C)c1nnnn1-c1cc(C(=O)NC(C)(C)C(F)(F)F)cc(-c2ccc(Cl)c(F)c2)c1 [Example 119, 3-(5-tert-Butyltetrazol-1-yl)-5-(4-chloro-3-fluorophenyl)-N-(1,1,1-trifluoro-2-methylpropan-2-yl)-benzamide]
300 nM | 276.5 °C | CC(C)(C#N)NC(=O)c1cc(-c2ccc(C(F)(F)F)cc2)cc(-n2nnnc2C(C)(C)C)c1 [Example 120, 3-(5-tert-Butyltetrazol-1-yl)-N-(2-cyanopropan-2-yl)-5-[4-(trifluoromethyl)-phenyl]benzamide]
210 nM | 261.5 °C | CC(C)(C#N)NC(=O)c1cc(-c2ccc(Cl)c(F)c2)cc(-n2nnnc2C(C)(C)C)c1 [Example 121, 3-(5-tert-Butyltetrazol-1-yl)-5-(4-chloro-3-fluorophenyl)-N-(2-cyanopropan-2-yl)-benzamide]
360 nM | 221.5 °C | CC(C)(C)c1nnnn1-c1cc(C(=O)NC(C)(C)C(F)(F)F)cc(-c2ccc(F)c(F)c2)c1 [Example 122, 3-(5-tert-Butyltetrazol-1-yl)-5-(3,4-difluorophenyl)-N-(1,1,1-trifluoro-2-methylpropan-2-yl)-benzamide]
220 nM | 263.5 °C | CC(C)(C#N)NC(=O)c1cc(-c2ccc(F)c(F)c2)cc(-n2nnnc2C(C)(C)C)c1 [Example 123, 3-(5-tert-Butyltetrazol-1-yl)-N-(2-cyanopropan-2-yl)-5-(3,4-difluorophenyl)-benzamide]
